The conditions of series [1]: cited from earlier work.
Series [2] deals with congenital vascular malformations. The settings on record: conventional treatment of vascular malformations; at times lethal; cited from earlier work.
Series [3] has as its system complicated vascular malformations. As to conditions: cited from earlier work.
Setting [4] is: oral rapamycin, toxicities attributable to rapamycin.

Like-named read-outs stand apart in the source and are kept apart here.

Protocol for venous malformation: A relatively healthy patient with severely symptomatic venous malformations of the subcutaneous and intramuscular components of their thigh was treated according to methods of the disclosure. Their lesions were examined and diagnosis of the condition was made and confirmed based on duplex ultrasound and contrast enhanced MRI. […] Solutions were delivered to the patient using an operating suite using a sterile syringe. A total of 2 mL of omnipaque intravenous contrast was added into the mixture for radiopacity purposes under fluoroscopy and for in vivo visualization of the drug. Final concentration of the mixture was approximately 1 mg/mL This mixture was agitated via a three-way stopcock in the absence of air. The venous malformations were accessed percutaneously, using ultrasound and x-ray guidance. […] Different components of this multi focal venous malformation were similarly targeted and treated. […] Needle access tracts were plugged using a collagen matrix foam, and a sterile dressing was applied. The procedure was done under general endotracheal anesthesia, and the patient received postoperative anti-inflammatory and analgesic medications. […] A healthy patient with a disfiguring, symptomatic venous malformation of the subcutaneous tissues of the left nare was treated according to methods of the disclosure. Their lesion was examined, and diagnosis of the condition was made and confirmed based on contrast enhanced MRI. […] Solutions were delivered to the patient using an operating suite using a sterile syringe. A total of 2 mL of omnipaque intravenous contrast was added into the mixture for radiopacity purposes under fluoroscopy and for in vivo visualization of the drug. Final concentration of the mixture was approximately 1 mg/mL. This mixture was agitated via a three-way stopcock in the absence of air. The venous malformation was accessed percutaneously, using ultrasound and x-ray guidance. […] Different components of this focal venous malformation were similarly targeted and treated. […] Needle access tracts were plugged using a collagen matrix foam, and a sterile dressing was applied. The procedure was done under general endotracheal anesthesia, and the patient received postoperative anti-inflammatory and analgesic medications.

For the molecule `CO[C@H]1C[C@@H]2CC[C@@H](C)[C@@](O)(O2)C(=O)C(=O)N2CCCC[C@H]2C(=O)O[C@H]([C@H](C)C[C@@H]2CC[C@@H](OC(=O)C(C)(CO)CO)[C@H](OC)C2)CC(=O)[C@H](C)/C=C(\C)[C@@H](O)[C@@H](OC)C(=O)[C@H](C)C[C@H](C)/C=C/C=C/C=C/1C` [Temsirolimus], the “pain relief at follow-up” value with venous malformation (Example 1, post-operative day two, 14, and 90) was “excellent pain relief”. For the same molecule, the “venous flow in the malformation, color flow Doppler” value in the series with venous malformation (Example 2, left nasal venous malformation, FIGS. 5A-5B) was “diminished venous flow”. Moreover, in the series on venous malformation (Example 2, post-operative day 14 and day ~90), the “pain relief at follow-up” value is on record as “partial pain relief”. In the series with venous malformation (human, in vivo), the “fevers or infection at follow-up” value is recorded as “no evidence of fevers or infection”; the “fevers, infection at follow-up” value is “no evidence of fevers, infection”; the “normal arterial flow adjacent to the malformation, spectral waveform analysis” value is on record as “preservation of intervening normal arterial network of the face”; the perioperative complications result is reported as “no perioperative complications”. The post-operative labs result with venous malformation (human, in vivo) was “within expected, normal limits”. Moreover, in series [1] (IV infusion, theoretical comparison of equal units), the “peak concentration Cmax, temsirolimus compared with sirolimus” value is given as “almost similar”.
Regarding `CCO` [absolute ethanol, ethanol], the side effect profile result in series [2] is “up to 50%”.
Turning to `CO[C@H]1C[C@@H]2CC[C@@H](C)[C@@](O)(O2)C(=O)C(=O)N2CCCC[C@H]2C(=O)O[C@H]([C@H](C)C[C@@H]2CC[C@@H](O)[C@H](OC)C2)CC(=O)[C@H](C)/C=C(\C)[C@@H](O)[C@@H](OC)C(=O)[C@H](C)C[C@H](C)/C=C/C=C/C=C/1C` [rapamycin], in series [3] (oral rapamycin, phase II trial enrolling 61 patients), the “patients taken off of the study due to persistent adverse effects” value is recorded as “Two”. Further, in series [3] (setting [4]), the “Grade 3 and higher blood/bone marrow toxicity, share of patients” value is 27%; the “Grade 3 and higher gastrointestinal toxicity, share of patients” value is recorded as 3%; the “Grade 3 and higher metabolic/laboratory toxicity, share of patients” value is recorded as 3%. Moreover, the “other commonly reported negative side effects” value in series [3] (systemic rapamycin) was “stomatitis, headache, infections, myelodepression, acne, and hyperlipidemia”. Further, the “sirolimus AUC relative to temsirolimus AUC” value in series [1] (single 25 mg intravenous dose of temsirolimus, patients with cancer) is given as 2.7 fold.
